Consider eleven molecules from PubChem BioAssay AID1259407 (Chemical Carcinogenesis Research Information System (CCRIS), 2018).

The structures appear in SMILES notation. Activity calls are given as the source filed them. The rule behind the calls is not given here.

The data set deals with CCRIS mutagenicity, Ames/micronucleus/aberration tests. Put plainly: CCRIS mutagenicity studies.
The mark [1] stands for this setting: Test System: AMES SALMONELLA TYPHIMURIUM, Strain/Indicator: TA98, Metabolic Activation: NONE, Method: STANDARD PLATE.
[2] abbreviates: Test System: AMES SALMONELLA TYPHIMURIUM, Strain/Indicator: TA100, Metabolic Activation: NONE, Method: STANDARD PLATE.
The mark [3] stands for this setting: Test System: AMES SALMONELLA TYPHIMURIUM, Strain/Indicator: TA1535, Metabolic Activation: NONE, Method: STANDARD PLATE.
The mark [4] stands for this setting: Test System: AMES SALMONELLA TYPHIMURIUM, Strain/Indicator: TA1537, Metabolic Activation: NONE, Method: STANDARD PLATE.
[5] abbreviates: Test System: AMES SALMONELLA TYPHIMURIUM, Strain/Indicator: TA100, Metabolic Activation: S-9, Method: STANDARD PLATE.

For `O=C([O-])[C@H](O)[C@@H](O)[C@H](O)[C@H](O)CO.O=C([O-])[C@H](O)[C@@H](O)[C@H](O)[C@H](O)CO.[Mn+2]`, the mutagenic call is “inactive; negative” under setting [1]; “inactive; negative” (Test System: AMES SALMONELLA TYPHIMURIUM, Strain/Indicator: TA98, Metabolic Activation: RAT, LIVER, S-9, AROCLOR 1254, Method: STANDARD PLATE); “inactive; negative” under setting [2]; “inactive; negative” (Test System: AMES SALMONELLA TYPHIMURIUM, Strain/Indicator: TA100, Metabolic Activation: RAT, LIVER, S-9, AROCLOR 1254, Method: STANDARD PLATE); “inactive; negative” under setting [3]; “inactive; negative” (Test System: AMES SALMONELLA TYPHIMURIUM, Strain/Indicator: TA1535, Metabolic Activation: RAT, LIVER, S-9, AROCLOR 1254, Method: STANDARD PLATE). The mutagenic call is, setting by setting: under setting [4], “inactive; negative”; (Test System: AMES SALMONELLA TYPHIMURIUM, Strain/Indicator: TA1537, Metabolic Activation: RAT, LIVER, S-9, AROCLOR 1254, Method: STANDARD PLATE) “inactive; negative”; (Test System: AMES SALMONELLA TYPHIMURIUM, Strain/Indicator: TA1538, Metabolic Activation: NONE, Method: STANDARD PLATE) “inactive; negative”; (Test System: AMES SALMONELLA TYPHIMURIUM, Strain/Indicator: TA1538, Metabolic Activation: RAT, LIVER, S-9, AROCLOR 1254, Method: STANDARD PLATE) “inactive; negative”; (Test System: E. COLI, Strain/Indicator: WP2, Metabolic Activation: NONE, Method: STANDARD PLATE) “inactive; negative”; (Test System: E. COLI, Strain/Indicator: WP2, Metabolic Activation: RAT, LIVER, S-9, AROCLOR 1254, Method: STANDARD PLATE) “inactive; negative”.
Regarding `ONc1ccccc1-c1ccccc1`, the mutagenic call was “inactive; negative” under setting [1] and “active; positive” under setting [2].
As to `COc1cc2c(cc1O)CC[C@@H]1[C@@H]2CC[C@]2(C)[C@@H](O)CC[C@@H]12`, for the setting “Test System: Mouse lymphoma, Strain/Indicator: L5178Y (tk+/tk-), Metabolic Activation: Rat, Liver, S-9, Aroclor 1254, Method: Suspension/plate”, the mutagenic call was “active; equivocal (previous evaluation positive)”.
Take `Nc1ncnc2c1ncn2[C@H]1C[C@H](O)[C@@H](CO)O1`: the mutagenic call was “inactive; negative” under setting [1]; “inactive; negative” (Test System: AMES SALMONELLA TYPHIMURIUM, Strain/Indicator: TA98, Metabolic Activation: RAT, LIVER, S-9, POLYCHLORINATED BIPHENYLS, Method: STANDARD PLATE); “inactive; negative” under setting [2]; “inactive; negative” (Test System: AMES SALMONELLA TYPHIMURIUM, Strain/Indicator: TA100, Metabolic Activation: RAT, LIVER, S-9, POLYCHLORINATED BIPHENYLS, Method: STANDARD PLATE); “active; positive” (Test System: MOUSE LYMPHOMA, Strain/Indicator: L5178Y (TK+/TK-), Metabolic Activation: NONE, Method: SUSPENSION/PLATE).
As to `CC(=O)OC[C@@]1(O)CC23CC[C@@H]4c5ccoc5CC[C@@]4(C)[C@@H]2CC[C@@H]1C3`, the mutagenic call is “inactive; negative” (Test System: AMES SALMONELLA TYPHIMURIUM, Strain/Indicator: TM677, Metabolic Activation: NONE, Method: PREINCUBATION) and “inactive; negative” (Test System: AMES SALMONELLA TYPHIMURIUM, Strain/Indicator: TM677, Metabolic Activation: RAT, LIVER, S-9, AROCLOR 1254, Method: PREINCUBATION).
For `Nc1ccc(/C=C/c2ccc([N+](=O)[O-])cc2)cc1`, the mutagenic call was “inactive; negative” (Test System: AMES SALMONELLA TYPHIMURIUM, Strain/Indicator: TA98 (NR), Metabolic Activation: NONE, Method: STANDARD PLATE); “active; positive” (Test System: AMES SALMONELLA TYPHIMURIUM, Strain/Indicator: TA98 (NR), Metabolic Activation: S-9, Method: STANDARD PLATE); “active; positive” under setting [1]; “active; positive” (Test System: AMES SALMONELLA TYPHIMURIUM, Strain/Indicator: TA98, Metabolic Activation: S-9, Method: STANDARD PLATE); “inactive; negative” (Test System: AMES SALMONELLA TYPHIMURIUM, Strain/Indicator: TA100 (NR), Metabolic Activation: NONE, Method: STANDARD PLATE); “active; positive” (Test System: AMES SALMONELLA TYPHIMURIUM, Strain/Indicator: TA100 (NR), Metabolic Activation: S-9, Method: STANDARD PLATE). Moreover, the mutagenic call was “inactive; negative” under setting [2] and “active; positive” under setting [5].
Regarding `N[C@@H](CCC(=O)NC(CSC(Cl)=C(Cl)Cl)C(=O)NCC(=O)O)C(=O)O` (some centres undefined), the mutagenic call is “inactive; negative” (Test System: AMES SALMONELLA TYPHIMURIUM, Strain/Indicator: TA100, Metabolic Activation: NONE, Method: PREINCUBATION) and “active; positive” (Test System: AMES SALMONELLA TYPHIMURIUM, Strain/Indicator: TA100, Metabolic Activation: RAT, KIDNEY, MICROSOMES, Method: PREINCUBATION).
For the molecule `O=[N+]([O-])c1ccc2ccc3cc4c(c5ccc1c2c35)CCCC4O` (centres undefined), the mutagenic call under setting [1] is “active; positive”.
Regarding `OCc1ccc2c(c1)-c1cccc3cccc-2c13`, the mutagenic call is “inactive; negative” under setting [1] and “active; positive” under setting [2].
As for `O=[N+]([O-])c1cccc2csnc12`, the mutagenic call was “active; positive” under setting [1]; “active; positive” under setting [2]; “active; positive” under setting [5]; “active; positive” under setting [3]; “inactive; negative” (Test System: AMES SALMONELLA TYPHIMURIUM, Strain/Indicator: TA1535, Metabolic Activation: S-9, Method: STANDARD PLATE); “active; positive” under setting [4]. Moreover, the mutagenic call (Test System: AMES SALMONELLA TYPHIMURIUM, Strain/Indicator: TA1537, Metabolic Activation: S-9, Method: STANDARD PLATE) is “inactive; negative”.
Take `CC1(C)C=C(C(=O)O)C(C)(C)N1[O]`: the mutagenic call under setting [1] is “inactive; negative”; the mutagenic call under setting [2] was “inactive; negative”; the mutagenic call (Test System: AMES SALMONELLA TYPHIMURIUM, Strain/Indicator: TA102, Metabolic Activation: NONE, Method: STANDARD) was “inactive; negative”; the mutagenic call (Test System: AMES SALMONELLA TYPHIMURIUM, Strain/Indicator: TA102, Metabolic Activation: NONE, Method: STANDARD PLATE) was “inactive; negative”; the mutagenic call (Test System: AMES SALMONELLA TYPHIMURIUM, Strain/Indicator: TA102, Metabolic Activation: XANTHINE OXIDASE, Method: STANDARD PLATE) is “inactive; negative”; the mutagenic call (Test System: AMES SALMONELLA TYPHIMURIUM, Strain/Indicator: TA104, Metabolic Activation: NONE, Method: STANDARD PLATE) was “inactive; negative”. Further, the mutagenic call (Test System: AMES SALMONELLA TYPHIMURIUM, Strain/Indicator: TA104, Metabolic Activation: XANTHINE OXIDASE, Method: STANDARD PLATE) was “inactive; negative”.
